This passage reports Ki results from ChEMBL document CHEMBL1149553, “Bicyclo[2.2.2]octanes: close structural mimics of the nuclear receptor-binding motif of steroid receptor coactivators” (Bioorg Med Chem Lett, 2007).

The target of the assay is T1, Estrogen receptor (Homo sapiens, UniProt P03372).
T1 sequence (P03372 whole entry): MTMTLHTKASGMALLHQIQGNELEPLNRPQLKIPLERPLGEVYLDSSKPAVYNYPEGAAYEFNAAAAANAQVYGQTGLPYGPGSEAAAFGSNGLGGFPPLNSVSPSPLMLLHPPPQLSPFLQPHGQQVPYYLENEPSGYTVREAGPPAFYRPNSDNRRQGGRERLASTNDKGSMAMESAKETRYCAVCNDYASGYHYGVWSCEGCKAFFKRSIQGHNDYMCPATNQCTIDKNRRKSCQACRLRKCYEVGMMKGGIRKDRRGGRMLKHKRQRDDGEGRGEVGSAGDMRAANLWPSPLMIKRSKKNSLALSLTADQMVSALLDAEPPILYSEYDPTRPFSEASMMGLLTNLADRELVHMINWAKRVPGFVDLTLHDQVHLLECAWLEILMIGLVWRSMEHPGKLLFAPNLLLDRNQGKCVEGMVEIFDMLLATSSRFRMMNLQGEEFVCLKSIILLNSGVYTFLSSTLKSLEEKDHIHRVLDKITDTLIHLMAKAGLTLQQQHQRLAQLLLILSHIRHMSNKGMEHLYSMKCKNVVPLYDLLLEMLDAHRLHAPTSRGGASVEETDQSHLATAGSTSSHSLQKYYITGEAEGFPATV
Description: Displacement of iodoacetamide-fluorescein-labeled SRC3 from ERalpha by TR-FRET assay. (In general: In TR-FRET formats the signal depends on donor and acceptor labels being close together.)

One may read the Ki as the dissociation constant of the complex between target and ligand, obtained from inhibition or displacement. A lower Ki goes with higher affinity.

As for `COC(=O)C(CC1(C)CC2CCC1CC2C(C)(C)CCNC(=O)CCC(C)C)C(=O)OC` (stereo unspecified), the Ki stood at 7.1 µM.

With `COC(=O)C(=CC1(C)CC2C=CC1CC2C(C)(C)CCNC(=O)CCC(C)C)C(=O)OC` (stereo unspecified), the Ki worked out at 7.9 µM.

On to `COC(=O)C(CC1(C)CC2CCC1CC2C(C)(C)CCNC(=O)CCC(C)C)NC(=O)OCc1ccccc1` (stereo unspecified), for which the inhibitory constant (Ki) worked out at 38 µM.

On to `COC(=O)C(CC1(C)CC2CCC1CC2C(C)(C)CCNC(=O)CCC(C)C)C(=O)O` (stereo unspecified), for which the Ki was 12 µM.

Compound `CC[C@H](C)[C@H](NC(=O)[C@H](CCCCN)NC(=O)[C@H](Cc1c[nH]cn1)NC(=O)[C@H](CCCNC(=N)N)NC(=O)[C@H](CCC(=O)O)NC(=O)[C@@H](NC(=O)[C@@H](N)CC(C)C)[C@@H](C)O)C(=O)N[C@@H](CC(C)C)C(=O)N[C@@H](Cc1c[nH]cn1)C(=O)N[C@@H](CCCNC(=N)N)C(=O)N[C@@H](CC(C)C)C(=O)N[C@@H](CC(C)C)C(=O)N[C@@H](CCC(N)=O)C(=O)N[C@@H](CCC(=O)O)C(=O)NCC(=O)N[C@@H](CO)C(=O)N1CCC[C@H]1C(=O)N[C@@H](CO)C(=O)N[C@@H](CC(=O)O)C(=O)O` came in with an inhibition constant (Ki) of 0.19 µM.

`COC(=O)C(N)CC1(C)CC2CCC1CC2C(C)(C)CCNC(=O)CCC(C)C` (stereo unspecified): the affinity corresponds to a Ki of 32 µM.
